According to US10087185B2 (Janssen Pharmaceutica NV, priority 2016, dated 2018):

target: TARP γ8 dependent AMPA receptor (GRIA1o-CACNG8 fusion construct) (Homo sapiens (Human), UniProt P42261+Q8WXS5); test: Calcium flux assay (FLIPR), inhibition of glutamate response of GluA1o-γ8 channel; assay type: cell-based; settings: HEK293 cells stably expressing GRIA1o-CACNG8 fusion; calcium flux after 15 μM glutamate; negative log of the IC50 in molar
Text: This assay was used to test compounds for their ability to inhibit TARP γ8 dependent AMPA receptor activity. The AMPA receptor is a non-selective cation channel activated by glutamate. […] But, this desensitization is incomplete, and a substantial steady-state current remains in the sustained presence of glutamate (Cho et al. (2007). “Two families of TARP isoforms that have distinct effects on the kinetic properties of AMPA receptors and synaptic currents.” Neuron 55(6): 890-904).
An in vitro assay was used to determine the potency of test compounds as inhibitors of the glutamate response of the channel formed by GluA10-γ8. To ensure a 1:1 stoichiometry of GluA1o and γ8 subunits in the expressed channel, a fusion of the cDNAs for GRIA1o and CACNG8 was used. Following Shi et al (2009) “The stoichiometry of AMPA receptors and TARPs varies by neuronal cell type.” Neuron 62(5): 633-640), the C-terminus of the cDNA for GRIA1o was fused to the N-terminus of the cDNA for γ8. The linker sequence was […]. Channels expressed with this construct appear to have similar properties to channels formed by co-expression of GRIA1o with an excess of CACNG8 (Shi et al. 2009). A clonal cell line in HEK293 cells stably expressing this construct, with a geneticin selection marker, was generated for use in this assay.
Cell expressing the GRIA1o-CACNG8 fusion construct were grown in a monolayer in 96- or 384-well microtiter plates. They were washed with assay buffer (135 mM NaCl, 4 mM KCl, 3 mM CaCl2, 1 mM MgCl2, 5 mM glucose, 10 mM HEPES, pH 7.4, 300 mOs) using a Biotek EL405 plate washer. The cells were then loaded with a calcium-sensitive dye (Calcium-5 or Calcium-6, Molecular Devices) and the test compounds at a range of concentrations. Calcium flux following the addition of 15 μM glutamate was monitored using a Molecular Devices FLIPR Tetra.
The fluorescence in each well was normalized to the fluorescence of negative and positive control wells. The negative control wells had no added compounds, and the positive control wells had been incubated with 10 μM CP465022 (a non-subtype-selective AMPA receptor antagonist) (Lazzaro et al. (2002). “Functional characterization of CP-465,022, a selective, noncompetitive AMPA receptor antagonist.” Neuropharmacology 42(2): 143-153). The responses to glutamate as functions of the test compound concentrations were fitted to a four-parameter logistic function. The fitted parameter corresponding to the midpoint was taken to be the potency of inhibition of the compound. The data in Table 4 below illustrates the observed potency for the compounds described herein. pIC50 refers to the negative log of the IC50 in molar.

TARP γ8 dependent AMPA receptor (GRIA1o-CACNG8 fusion construct), sequence (P42261 other isoform, or with tags, fused parts or gaps): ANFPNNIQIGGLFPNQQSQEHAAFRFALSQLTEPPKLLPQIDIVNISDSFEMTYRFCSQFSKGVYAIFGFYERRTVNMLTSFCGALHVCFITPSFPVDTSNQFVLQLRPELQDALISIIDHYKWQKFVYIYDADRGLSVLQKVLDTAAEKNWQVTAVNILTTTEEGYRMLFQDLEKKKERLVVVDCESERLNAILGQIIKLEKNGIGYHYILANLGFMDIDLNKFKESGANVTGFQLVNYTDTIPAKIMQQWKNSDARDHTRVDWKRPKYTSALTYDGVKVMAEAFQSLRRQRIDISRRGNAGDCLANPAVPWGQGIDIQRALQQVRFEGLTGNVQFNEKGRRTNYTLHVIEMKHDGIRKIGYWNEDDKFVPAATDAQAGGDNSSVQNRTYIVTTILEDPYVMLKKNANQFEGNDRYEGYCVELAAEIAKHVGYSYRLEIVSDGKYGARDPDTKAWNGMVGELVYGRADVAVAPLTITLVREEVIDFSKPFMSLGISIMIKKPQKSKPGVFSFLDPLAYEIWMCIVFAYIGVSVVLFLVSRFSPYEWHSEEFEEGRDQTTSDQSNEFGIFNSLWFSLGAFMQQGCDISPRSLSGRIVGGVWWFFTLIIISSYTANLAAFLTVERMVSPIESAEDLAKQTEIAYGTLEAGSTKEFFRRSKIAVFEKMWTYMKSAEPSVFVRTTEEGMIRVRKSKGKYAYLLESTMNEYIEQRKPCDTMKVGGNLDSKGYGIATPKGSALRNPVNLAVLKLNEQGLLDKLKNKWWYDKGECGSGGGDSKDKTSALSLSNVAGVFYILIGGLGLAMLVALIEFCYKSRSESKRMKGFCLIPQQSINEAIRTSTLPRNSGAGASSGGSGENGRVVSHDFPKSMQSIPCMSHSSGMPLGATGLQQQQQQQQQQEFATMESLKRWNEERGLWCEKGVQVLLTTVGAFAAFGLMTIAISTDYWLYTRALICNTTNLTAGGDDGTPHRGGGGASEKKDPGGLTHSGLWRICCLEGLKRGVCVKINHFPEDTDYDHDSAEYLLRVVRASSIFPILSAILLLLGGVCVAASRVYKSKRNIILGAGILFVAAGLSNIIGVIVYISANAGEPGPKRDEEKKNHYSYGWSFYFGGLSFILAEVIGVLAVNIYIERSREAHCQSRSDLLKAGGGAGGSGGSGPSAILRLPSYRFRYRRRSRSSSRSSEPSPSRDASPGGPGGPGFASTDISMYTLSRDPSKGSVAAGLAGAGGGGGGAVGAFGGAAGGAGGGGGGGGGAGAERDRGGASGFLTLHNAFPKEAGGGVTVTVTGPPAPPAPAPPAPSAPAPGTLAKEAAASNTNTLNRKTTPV

| IC50 [nM] | SMILES |
| --- | --- |
| 5.01 | COc1ccc2nc(C(F)(F)F)nn2c1-c1cc(C)c2[nH]ncc2c1 [Example 51, 6-Methoxy-5-(7-methyl-1H-indazol-5-yl)-2-(trifluoromethyl)-[1,2,4]triazolo[1,5-a]pyridine] |
| 0.501 | CCc1ccc2nc(C(F)(F)F)nn2c1-c1cc(C)c2[nH]ncc2c1 [Example 52, 6-Ethyl-5-(7-methyl-1H-indazol-5-yl)-2-(trifluoromethyl)-[1,2,4]triazolo[1,5-a]pyridine] |
| 0.0501 | CC(F)(F)c1ccc2nc(C(F)(F)F)nn2c1-c1cc(Cl)c2[nH]ncc2c1 [Example 53, 5-(7-Chloro-1H-indazol-5-yl)-6-(1,1-difluoroethyl)-2-(trifluoromethyl)-[1,2,4]triazolo[1,5-a]pyridine] |
| 0.794 | O=c1[nH]c2ccc(-c3c(C(F)(F)F)ccc4nc(C(F)F)nn34)cc2s1 [Example 54, 6-(2-(Difluoromethyl)-6-(trifluoromethyl)-[1,2,4]triazolo[1,5-a]pyridin-5-yl)benzo[d]thiazol-2(3H)-one] |
| 0.0398 | Cc1cc(-c2c(-c3ccc(F)cc3)ccc3nc(C(F)(F)F)nn23)cc2cn[nH]c12 [Example 55, 6-(4-Fluorophenyl)-5-(7-methyl-1H-indazol-5-yl)-2-(trifluoromethyl)-[1,2,4]triazolo[1,5-a]pyridine] |
| 1.26 | Fc1ccc(-c2ccc3nc(C(F)(F)F)nn3c2-c2ccc3[nH]ncc3c2)cc1 [Example 56, 6-(4-Fluorophenyl)-5-(1H-indazol-5-yl)-2-(trifluoromethyl)-[1,2,4]triazolo[1,5-a]pyridine] |
| 0.0631 | Cc1cc(-c2c(-c3ccc(F)cc3)ccc3nc(C(F)(F)F)nn23)cc2c1NC(=O)C2 [Example 57, 5-(6-(4-Fluorophenyl)-2-(trifluoromethyl)-[1,2,4]triazolo[1,5-a]pyridin-5-yl)-7-methylindolin-2-one] |
| 0.794 | Cc1cc(-c2c(-c3cccnc3)ccc3nc(C(F)(F)F)nn23)cc2cn[nH]c12 [Example 58, 5-(7-Methyl-1H-indazol-5-yl)-6-(pyridin-3-yl)-2-(trifluoromethyl)-[1,2,4]triazolo[1,5-a]pyridine] |
| 6.31 | Cc1cc(-c2c(-c3ccncc3)ccc3nc(C(F)(F)F)nn23)cc2cn[nH]c12 [Example 59, 5-(7-Methyl-1H-indazol-5-yl)-6-(pyridin-4-yl)-2-(trifluoromethyl)-[1,2,4]triazolo[1,5-a]pyridine] |
| 1.26 | Cc1nc2ccc(-c3ccc(F)cc3)c(-c3cc(C)c4[nH]ncc4c3)n2n1 [Example 60, 6-(4-Fluorophenyl)-2-methyl-5-(7-methyl-1H-indazol-5-yl)-[1,2,4]triazolo[1,5-a]pyridine] |
| 0.2 | CCc1nc2ccc(-c3ccc(F)cc3)c(-c3cc(C)c4[nH]ncc4c3)n2n1 [Example 61, 2-Ethyl-6-(4-fluorophenyl)-5-(7-methyl-1H-indazol-5-yl)-[1,2,4]triazolo[1,5-a]pyridine] |
| 0.126 | Cc1cc(-c2c(-c3ccc(F)cc3)ccc3nc(C4CC4)nn23)cc2cn[nH]c12 [Example 62, 2-Cyclopropyl-6-(4-fluorophenyl)-5-(7-methyl-1H-indazol-5-yl)-[1,2,4]triazolo[1,5-a]pyridine] |

The remaining lines, values behind:

| SMILES | IC50 [nM] |
| --- | --- |
| CCc1nc2c(F)cc(C(F)(F)F)c(-c3cc(Cl)c4c(c3)CC(=O)N4)n2n1 [Example 32, 7-Chloro-5-[2-ethyl-8-fluoro-6-(trifluoromethyl)-[1,2,4]triazolo[1,5-a]pyridin-5-yl]indolin-2-one] | 2 |
| Cc1cc(-c2c(C(F)(F)F)cc(F)c3nc(C4CC4)nn23)cc2cn[nH]c12 [Example 33, 2-Cyclopropyl-8-fluoro-5-(7-methyl-1H-indazol-5-yl)-6-(trifluoromethyl)-[1,2,4]triazolo[1,5-a]pyridine] | 0.2 |
| CC(C)c1nc2c(F)cc(C(F)(F)F)c(-c3cc(Cl)c4[nH]ncc4c3)n2n1 [Example 34, 5-(7-Chloro-1H-indazol-5-yl)-8-fluoro-2-isopropyl-6-(trifluoromethyl)-[1,2,4]triazolo[1,5-a]pyridine] | 0.316 |
| CCc1nc2c(C)cc(C(F)(F)F)c(-c3cc(Cl)c4[nH]ncc4c3)n2n1 [Example 35, 5-(7-Chloro-1H-indazol-5-yl)-2-ethyl-8-methyl-6-(trifluoromethyl)-[1,2,4]triazolo[1,5-]pyridine] | 0.398 |
| CC(C)c1nc2ccc(C(F)(F)F)c(-c3cc(Cl)c4[nH]ncc4c3)n2n1 [Example 36, 5-(7-Chloro-1H-indazol-5-yl)-2-isopropyl-6-(trifluoromethyl)-[1,2,4]triazolo[1,5-a]pyridine] | 0.0794 |
| Cc1cc(-c2c(C(F)(F)F)ccc3nc(C(C)C)nn23)cc2cn[nH]c12 [Example 37, 2-Isopropyl-5-(7-methyl-1H-indazol-5-yl)-6-(trifluoromethyl)-[1,2,4]triazolo[1,5-a]pyridine] | 0.316 |
| FC(F)(F)c1ccc2nc(C3CC3)nn2c1-c1cc(Cl)c2[nH]ncc2c1 [Example 38, 5-(7-Chloro-1H-indazol-5-yl)-2-cyclopropyl-6-(trifluoromethyl)-[1,2,4]triazolo[1,5-a]pyridine] | 0.126 |
| Cc1cc(-c2c(C(F)(F)F)ccc3nc(C4CC4)nn23)cc2cn[nH]c12 [Example 39, 2-Cyclopropyl-5-(7-methyl-1H-indazol-5-yl)-6-(trifluoromethyl)-[1,2,4]triazolo[1,5-a]pyridine] | 0.316 |
| O=C1Cc2cc(-c3c(C(F)(F)F)ccc4nc(C5CC5)nn34)cc(Cl)c2N1 [Example 40, 7-Chloro-5-(2-cyclopropyl-6-(trifluoromethyl)-[1,2,4]triazolo[1,5-a]pyridin-5-yl)indolin-2-one] | 0.398 |
| Cc1cc(-c2c(C(F)(F)F)ccc3nc(C4CC4)nn23)cc2c1NC(=O)C2 [Example 41, 5-(2-Cyclopropyl-6-(trifluoromethyl)-[1,2,4]triazolo[1,5-a]pyridin-5-yl)-7-methylindolin-2-one] | 0.631 |
| CC(F)(F)c1nc2ccc(C(F)(F)F)c(-c3cc(Cl)c4[nH]ncc4c3)n2n1 [Example 42, 5-(7-Chloro-1H-indazol-5-yl)-2-(1,1-difluoroethyl)-6-(trifluoromethyl)-[1,2,4]triazolo[1,5-a]pyridine] | 0.1 |
| COc1nc2ccc(C(F)(F)F)c(-c3cc(Cl)c4[nH]ncc4c3)n2n1 [Example 43, 5-(7-Chloro-1H-indazol-5-yl)-2-methoxy-6-(trifluoromethyl)-[1,2,4]triazolo[1,5-a]pyridine] | 3.16 |
| CCc1nc2ccc(C(F)F)c(-c3cc(Cl)c4[nH]ncc4c3)n2n1 [Example 44, 5-(7-Chloro-1H-indazol-5-yl)-6-(difluoromethyl)-2-ethyl-[1,2,4]triazolo[1,5-a]pyridine] | 0.398 |
| CCc1nc2ccc(C(F)F)c(-c3cc(C)c4[nH]ncc4c3)n2n1 [Example 45, 6-(Difluoromethyl)-2-ethyl-5-(7-methyl-1H-indazol-5-yl)-[1,2,4]triazolo[1,5-a]pyridine] | 1.26 |
| CCc1nc2ccc(C(F)F)c(-c3cc(Cl)c4c(c3)CC(=O)N4)n2n1 [Example 46, 7-Chloro-5-(6-(difluoromethyl)-2-ethyl-[1,2,4]triazolo[1,5-a]pyridin-5-yl)indolin-2-one] | 3.98 |
| CCc1nc2ccc(C(F)F)c(-c3cc(C)c4c(c3)CC(=O)N4)n2n1 [Example 47, 5-(6-(Difluoromethyl)-2-ethyl-[1,2,4]triazolo[1,5-a]pyridin-5-yl)-7-methylindolin-2-one] | 3.98 |
| FC(F)c1ccc2nc(C3CC3)nn2c1-c1cc(Cl)c2[nH]ncc2c1 [Example 48, 5-(7-Chloro-1H-indazol-5-yl)-2-cyclopropyl-6-(difluoromethyl)-[1,2,4]triazolo[1,5-a]pyridine] | 0.2 |
| Cc1cc(-c2c(C(F)F)ccc3nc(C4CC4)nn23)cc2cn[nH]c12 [Example 49, 2-Cyclopropyl-6-(difluoromethyl)-5-(7-methyl-1H-indazol-5-yl)-[1,2,4]triazolo[1,5-a]pyridine] | 0.794 |
| COc1ccc2nc(C(F)(F)F)nn2c1-c1cc(Cl)c2[nH]ncc2c1 [Example 50, 5-(7-Chloro-1H-indazol-5-yl)-6-methoxy-2-(trifluoromethyl)-[1,2,4]triazolo[1,5-a]pyridine] | 1 |
